US20050107356A1, “Combination of a CB1 receptor antagonist and of a product which activates dopaminergic neurotransmission in the brain, the pharmaceutical compositions comprising them and their use in the treatment of parkinson's disease” (Aventis Pharma S.A., priority 2001, published 2005)
Marks after values point to notes of the source that are not given here.

Assays:
Assay type in all cases: in vivo
Reserpine-treated rats [1] = assay: Reserpine-induced akinesia in the rat, locomotor activity; CB1 antagonist po one hour before C1-APB (SKF 82958, D1 dopaminergic agonist); conditions: recorded 1 hour
Description: (§1) The synergistic effect of the combination of one or more products which activate dopaminergic neurotransmission in the brain and of one or more CB1 antagonists in the treatment of Parkinson's disease was determined in a model of akinesia induced by reserpine in the rat according to the following protocol:
(§2) Male Sprague-Dawley rats were treated with reserpine administered subcutaneously at a dose of 3 mg/kg (1 ml/kg) in order to induce akinesia in the animal. 18 hours after this treatment, the locomotor activity of these animals was measured and recorded using an automatic system (Videotrack, France). The locomotion, expressed in centimeters, is estimated by a mean overall distance covered during this period (n=11-38 rats per group). The statistical analysis is carried out by a variance analysis and a post-hoc comparison (if appropriate) using a Mann-Whitney or Dunnett test. A significant effect is recorded for p<0.05.
(§3) The studies by the oral route are carried out in a hydrophobic formulation solvent Labrafil/Labrasol (40/60%, w/w). These products are administered (in a volume of 1 ml/kg) one hour before the dopaminergic agonist. The recording of the locomotor activity begins 5 min after the intraperitoneal injection of the dopaminergic agonist and lasts 1 hour. The D1 dopaminergic agonist is 0.3 mg/kg C1-APB. The D2 dopaminergic agonist is 0.1 mg/kg quinpirole.

Reserpine-treated rats [2] = assay: Reserpine-induced akinesia in the rat, locomotor activity; CB1 antagonist i.p. co-administered with a strong dose of levodopa + benserazide (dyskinesia model); conditions: CB1 antagonist 3 mg/kg i.p., levodopa + benserazide 50 mg/kg, recorded 2.5 hours
Description: as §1, §2
(§4) The results for the ip administration of the CB1 antagonists (Table 1) are expressed as percentage of increase with respect to the activity of quinpirole and as percentage of decrease with respect to the activity of a very strong dose of levodopa.
The combination of a CB1 receptor antagonist and of a strong dose of levodopa (dyskinesia model) is produced in the following way: […]

Reserpine-treated rats [3] = assay: Reserpine-induced akinesia in the rat, locomotor activity; CB1 antagonist i.p. co-administered with quinpirole (D2 dopaminergic agonist); conditions: CB1 antagonist 1.5 mg/kg i.p., locomotor activity recorded 1 hour
Description: as §1, §2, §4
The combination of a CB1 receptor antagonist and of a D2 dopaminergic agonist (quinpirole) is produced in the following way: […]

Reserpine-treated rats [4] = assay: Reserpine-induced akinesia in the rat, locomotor activity; CB1 antagonist po one hour before quinpirole (D2 dopaminergic agonist); conditions: recorded 1 hour
Description: as §1, §2, §3

CS(=O)(=O)C(=C1CN(C(c2ccc(Cl)cc2)c2ccc(Cl)cc2)C1)c1cc(F)cc(F)c1 [Example 1, 1-[bis(4-chlorophenyl)methyl]-3-[(3,5-difluorophenyl)(methylsulfonyl)methylene]azetidine]
Combination with C1-APB (0.3 mg/kg ip): percentage of decrease with respect to the activity of a strong dose of C1-APB (Reserpine-treated rats [1]; CB1 antagonist 1 mg/kg po): −33% NS
Combination with C1-APB (0.3 mg/kg ip): percentage of decrease with respect to the activity of a strong dose of C1-APB (Reserpine-treated rats [1]; CB1 antagonist 3 mg/kg po): −67%**
Combination with C1-APB (0.3 mg/kg ip): percentage of decrease with respect to the activity of a strong dose of C1-APB (Reserpine-treated rats [1]; CB1 antagonist 10 mg/kg po): −62%**
Combination with levodopa (120 mg/kg ip): percentage of decrease with respect to the activity of a very strong dose of levodopa (Reserpine-treated rats [2]): −42%*
Combination with quinpirole (62.5 μg/kg ip): percentage of increase with respect to the activity of quinpirole (Reserpine-treated rats [3]): +125%***
Combination with quinpirole (0.1 mg/kg ip): percentage of increase with respect to the activity of quinpirole (Reserpine-treated rats [4]; CB1 antagonist 1 mg/kg po): +33% NS
Combination with quinpirole (0.1 mg/kg ip): percentage of increase with respect to the activity of quinpirole (Reserpine-treated rats [4]; CB1 antagonist 3 mg/kg po): +58%**
Combination with quinpirole (0.1 mg/kg ip): percentage of increase with respect to the activity of quinpirole (Reserpine-treated rats [4]; CB1 antagonist 10 mg/kg po): +23% NS
